Experimental data from patent US7682602B2, “Near-infrared fluorescent contrast medium” (Konica Minolta Medical & Graphic, Inc., priority 2003, dated 2010).

Experiments:
[1] = test system: tumor tissue of breast cancer mouse implanted in BALB/c nude mouse; assay: Fluorescent contrast imaging test in tumor-implanted nude mice; type: in vivo; design: key: A: fluorescence was clearly observed in the tumor portion; B: fluorescence was also observed in the normal portion but the tumor portion was discernible; C: the normal portion and the tumor portion emitted slight fluorescence but the tumor portion was barely discernible; D: slight fluorescence was emitted overall and the tumor portion was not discernible from the normal portion; E: no fluorescence was observed; conditions: 3 mg/kg through lactiferous duct and adenoid lobe; whole-body fluorescent imaging 30 min., 12 hr. and 24 hr. after dosage; fluorescence of tumor portion
Description: Model mice having breast cancer were prepared by dosing a carcinogene, 7,12-dimethylbenz[a]anthracene (DMBA) to an acceleratedly aged mice, SAMP6/Ta type mouse as one system of a so-called SAM type to cause breast cancer. Carcinogenesis was carried out in accordance with the description of JP-A No. 2003-033125. To each of 20 SAMP6/Ta type mice, DMBA was dosed in an amount of 0.5 mg/mouse·week, a total of six times. Solid high-protein, high-calorie CA-1 (available from CLEA Japan Inc.) was fed to the mice. After completion of the 6th dose of the carcinogenic substance, the dosage was stopped until the 20th month calculated from the 1st month. Breast cancer and lung metastasis were examined in the manner of pathologic histology.
A segment (2 mm×2 mm square) of tumor tissue of the foregoing breast cancer mouse was implanted below the skin of the breast in the left chest of a BALB/c nude mouse (5 weeks old, CLEA Japan Inc.). After 10 days, when the tumor has grown up to a diameter of approximately 5 mm, the foregoing mice were subjected to the fluorescent contrast imaging test. A titanium/sapphire laser was used as an exciting light source. The test mice in a darkened box were uniformly exposed to laser light using a ring-type light guide (available from Sumita Optical Glass Inc.) so that the dispersion of exposure fell within 2%. The irradiation output was adjusted so as to be about 38 μW/cm^2 near the skin surface of the mice. Fluorescence was emitted by excitation at the absorption peak wavelength of the respective compounds and fluorescent radiation from the mice was subjected to detection and imaging by using a CCD camera (C4880, produced by Hamamatsu Photonics K.K.) together with a filter to cut reflection of incident light at the shorter wavelength side. The exposure time was adjusted in accordance with the fluorescence intensity of the respective compounds. As to the tumor portion, the image obtained by attaching a marker onto the skin surface and observing it under white light was superposed onto the image obtained by removing the marker, followed by exposure to a laser light in the dark and evaluation was made with respect to fluorescence emitted from the tumor portion.
Each of the test compounds shown in Table 1 was dissolved in a normal saline solution (at 0.5 mg/ml) and dosed to the mice through a lactiferous duct and an adenoid lobe. The dose was 3 mg/kg for the respective test compounds. […]

[2] = Discharge in vitro of cyanine compound (urethra catheter, liquid chromatograph); design: species or system mouse; conditions: sum of discharge over one week after dosage; relative value, amount in vivo after dosage = 100
Description: Discharge in vitro of a cyanine compound of contrast medium material was determined by fitting a urethra with a catheter and summing up the discharge over one week after the dosage, and represented by a relative value, based on the amount in vivo of the cyanine compound after the dosage thereof being 100. The discharge of a cyanine compound was determined using liquid chromatograph 2010 (available from Shimazu Corporation).

[3] = Water-solubility test of compound in normal saline solution; type: physicochemical; conditions: saline or isotonic, thermodynamic from solid, 0.5 mg in 1 ml normal saline solution, 42° C., precipitation or deposits
Description: In 1 ml of normal saline solution of an official grade was dissolved 0.5 mg of a dye (i.e., the cyanine compound to be tested) to make a solution.

Discharge in vitro (%) [2] [%] | solubility at 1 week [3] [µg/mL] | SMILES | Contrast Imaging [1]
99.0 | > 500 | CC12CCC(/C=C/C=C/C=C3\CCC4(C)C3=[N+](CC(O)CS(=O)(=O)[O-])c3cccnc34)=C1N(CC(O)CS(=O)(=O)O)c1cccnc12 (stereo not drawn) [Compound 12] | A
99.0 | > 500 | CC12CCC(/C=C/C=C/C3=CC(=C4\CCC5(C)C4=[N+](CC(O)CS(=O)(=O)O)c4ccc(S(=O)(=O)[O-])cc45)/CCC3)=C1N(CC(O)CS(=O)(=O)O)c1ccc(S(=O)(=O)O)cc12 (stereo not drawn) [Compound 37] | A
97.0 | > 500 | CC1(C)C(/C=C/C=C/C=C/C=C2/N(CCCCS(=O)(=O)O)c3ccc4cc(S(=O)(=O)O)cc(S(=O)(=O)[O-])c4c3C2(C)C)=[N+](CCCCS(=O)(=O)O)c2ccc3cc(S(=O)(=O)O)cc(S(=O)(=O)O)c3c21 [Compound C-2] | B

SMILES | Discharge in vitro (%) [2] [%] | solubility at 1 week [3] [µg/mL] | Contrast Imaging [1]
CC1(C)C(/C=C/C=C/C=C/C=C2/N(CCCCS(=O)(=O)[O-])c3ccc4ccccc4c3C2(C)C)=[N+](CCCCS(=O)(=O)[O-])c2ccc3ccccc3c21.[Na+] [Compound C-1, indoaniline green] | 99.0 | < 500 | C
